What was measured:
Assay type in all cases: functional
Schistosoma japonicum [1] = test: Antischistosomal activity against adult Schistosoma japonicum assessed as worm survival at 25 uM after 48 hrs relative to control
Schistosoma japonicum [2] = test: Antischistosomal activity against adult Schistosoma japonicum assessed as worm survival at 50 uM after 72 hrs relative to control
Schistosoma japonicum [3] = test: Antischistosomal activity against adult Schistosoma japonicum assessed as worm survival at 10 uM after 24 hrs relative to control
Schistosoma japonicum [4] = test: Antischistosomal activity against juvenile Schistosoma japonicum assessed as worm survival at 15 uM after 72 hrs relative to control
Schistosoma japonicum [5] = test: Antischistosomal activity against adult Schistosoma japonicum assessed as worm survival at 25 uM after 24 hrs relative to control
Schistosoma japonicum [6] = test: Antischistosomal activity against juvenile Schistosoma japonicum assessed as worm survival at 15 uM after 48 hrs relative to control
Schistosoma japonicum [7] = test: Antischistosomal activity against juvenile Schistosoma japonicum assessed as worm survival at 15 uM after 24 hrs relative to control
Schistosoma japonicum [8] = test: Antischistosomal activity against juvenile Schistosoma japonicum assessed as worm survival at 5 uM after 48 hrs relative to control
Schistosoma japonicum [9] = test: Antischistosomal activity against juvenile Schistosoma japonicum infected in mouse assessed as total worm reduction at 200 mg/kg, po administered 14 days after infection relative to control; design: scale not given: the % may be the effect or the level left
Schistosoma japonicum [10] = test: Antischistosomal activity against adult Schistosoma japonicum assessed as worm survival at 50 uM after 48 hrs relative to control
Schistosoma japonicum [11] = test: Antischistosomal activity against juvenile Schistosoma japonicum assessed as worm survival at 5 uM after 24 hrs relative to control
Schistosoma japonicum [12] = test: Antischistosomal activity against juvenile Schistosoma japonicum assessed as worm survival at 50 uM after 48 hrs relative to control
Schistosoma japonicum [13] = test: Antischistosomal activity against juvenile Schistosoma japonicum assessed as worm survival at 10 uM after 72 hrs relative to control
Schistosoma japonicum [14] = test: Antischistosomal activity against juvenile Schistosoma japonicum assessed as worm survival at 10 uM after 48 hrs relative to control
Schistosoma japonicum [15] = test: Antischistosomal activity against adult Schistosoma japonicum assessed as worm survival at 5 uM after 48 hrs relative to control
Schistosoma japonicum [16] = test: Antischistosomal activity against adult Schistosoma japonicum assessed as worm survival at 10 uM after 48 hrs relative to control
Schistosoma japonicum [17] = test: Antischistosomal activity against juvenile Schistosoma japonicum assessed as worm survival at 5 uM after 72 hrs relative to control
Schistosoma japonicum [18] = test: Antischistosomal activity against adult Schistosoma japonicum assessed as worm survival at 5 uM after 24 hrs relative to control
Schistosoma japonicum [19] = test: Antischistosomal activity against adult Schistosoma japonicum assessed as worm survival at 25 uM after 72 hrs relative to control
Schistosoma japonicum [20] = test: Antischistosomal activity against adult Schistosoma japonicum assessed as worm survival at 10 uM after 72 hrs relative to control
Schistosoma japonicum [21] = test: Antischistosomal activity against adult Schistosoma japonicum assessed as worm survival at 50 uM after 24 hrs relative to control
Schistosoma japonicum [22] = test: Antischistosomal activity against juvenile Schistosoma japonicum assessed as worm survival at 50 uM after 24 hrs relative to control
Schistosoma japonicum [23] = test: Antischistosomal activity against adult Schistosoma japonicum assessed as worm survival at 5 uM after 72 hrs relative to control
Schistosoma japonicum [24] = test: Antischistosomal activity against adult Schistosoma japonicum infected in mouse assessed as total worm reduction at 200 mg/kg, po administered 21 days after infection relative to control; design: scale not given: the % may be the effect or the level left
Schistosoma japonicum [25] = test: Antischistosomal activity against juvenile Schistosoma japonicum assessed as worm survival at 50 uM after 72 hrs relative to control
Schistosoma japonicum [26] = test: Antischistosomal activity against juvenile Schistosoma japonicum assessed as worm survival at 10 uM after 24 hrs relative to control
Schistosoma japonicum [27] = test: Antischistosomal activity against juvenile Schistosoma japonicum assessed as worm survival at 20 uM after 24 hrs relative to control
Schistosoma japonicum [28] = test: Antischistosomal activity against juvenile Schistosoma japonicum assessed as worm survival at 20 uM after 48 hrs relative to control
Schistosoma japonicum [29] = test: Antischistosomal activity against adult Schistosoma japonicum assessed as worm survival at 15 uM after 24 hrs relative to control
Schistosoma japonicum [30] = test: Antischistosomal activity against juvenile Schistosoma japonicum assessed as worm survival at 25 uM after 24 hrs relative to control
Schistosoma japonicum [31] = test: Antischistosomal activity against juvenile Schistosoma japonicum assessed as worm survival at 25 uM after 72 hrs relative to control
Schistosoma japonicum [32] = test: Antischistosomal activity against juvenile Schistosoma japonicum assessed as worm survival at 25 uM after 48 hrs relative to control
Schistosoma japonicum [33] = test: Antischistosomal activity against adult Schistosoma japonicum assessed as worm survival at 20 uM after 48 hrs relative to control
Schistosoma japonicum [34] = test: Antischistosomal activity against adult Schistosoma japonicum assessed as worm survival at 15 uM after 48 hrs relative to control
Schistosoma japonicum [35] = test: Antischistosomal activity against adult Schistosoma japonicum assessed as worm survival at 20 uM after 24 hrs relative to control
Schistosoma japonicum [36] = test: Antischistosomal activity against adult Schistosoma japonicum assessed as worm survival at 20 uM after 72 hrs relative to control
Schistosoma japonicum [37] = test: Antischistosomal activity against juvenile Schistosoma japonicum assessed as worm survival at 20 uM after 72 hrs relative to control
Schistosoma japonicum [38] = test: Antischistosomal activity against adult Schistosoma japonicum assessed as worm survival at 15 uM after 72 hrs relative to control

Row | SMILES | survival at 25 µM (Schistosoma japonicum [1]) [%] | survival at 50 µM (Schistosoma japonicum [2]) [%] | survival at 10 µM (Schistosoma japonicum [3]) [%] | survival at 15 µM (Schistosoma japonicum [4]) [%] | survival at 25 µM (Schistosoma japonicum [5]) [%] | survival at 15 µM (Schistosoma japonicum [6]) [%] | survival at 15 µM (Schistosoma japonicum [7]) [%] | Activity (Schistosoma japonicum [9]) [%] | survival at 50 µM (Schistosoma japonicum [10]) [%] | survival at 50 µM (Schistosoma japonicum [12]) [%] | survival at 10 µM (Schistosoma japonicum [13]) [%] | survival at 10 µM (Schistosoma japonicum [14]) [%] | survival at 10 µM (Schistosoma japonicum [16]) [%] | survival at 25 µM (Schistosoma japonicum [19]) [%] | survival at 10 µM (Schistosoma japonicum [20]) [%] | survival at 50 µM (Schistosoma japonicum [21]) [%] | survival at 50 µM (Schistosoma japonicum [22]) [%] | Activity (Schistosoma japonicum [24]) [%] | survival at 50 µM (Schistosoma japonicum [25]) [%] | survival at 10 µM (Schistosoma japonicum [26]) [%] | also measured
1 | O=C(C1CCCCC1)N1CC(=O)N2CCc3ccc(O)cc3C2C1 (configuration not stated) | 0 | 0 | 0 | 0 | 0 | 0 | 0 | 16.1 | 0 | 0 | 54.5 | 45.5 | 20 | 0 | 20 | 0 | 0 | 40.2 | 0 | 0 | survival at 5 µM (Schistosoma japonicum [8]): 27.3%; survival at 5 µM (Schistosoma japonicum [11]): 0%; survival at 5 µM (Schistosoma japonicum [15]): 80%; survival at 5 µM (Schistosoma japonicum [17]): 27.3%; survival at 5 µM (Schistosoma japonicum [18]): 60%; survival at 5 µM (Schistosoma japonicum [23]): 80%
2 | C[C@H]1[C@@H](OC(=O)CCC(=O)Nc2ccc3c(c2)C2CN(C(=O)C4CCCCC4)CC(=O)N2CC3)O[C@@H]2O[C@@]3(C)CC[C@H]4[C@H](C)CC[C@@H]1[C@@]24OO3 (some centres not stated) | 0 | 0 | 100 |  | 0 |  |  | 3.8 | 0 | 0 | 54.5 | 45.5 | 100 | 0 | 100 | 0 | 0 | 41.8 | 0 | 9.1 | survival at 20 µM (Schistosoma japonicum [27]): 11.1%; survival at 20 µM (Schistosoma japonicum [28]): 0%; survival at 5 µM (Schistosoma japonicum [8]): 9.1%; survival at 15 µM (Schistosoma japonicum [29]): 0%; survival at 25 µM (Schistosoma japonicum [30]): 0%; survival at 5 µM (Schistosoma japonicum [11]): 9.1%; survival at 25 µM (Schistosoma japonicum [31]): 0%; survival at 5 µM (Schistosoma japonicum [17]): 9.1%; survival at 25 µM (Schistosoma japonicum [32]): 0%; survival at 20 µM (Schistosoma japonicum [33]): 0%; survival at 15 µM (Schistosoma japonicum [34]): 60%; survival at 20 µM (Schistosoma japonicum [35]): 0%; survival at 20 µM (Schistosoma japonicum [36]): 0%; survival at 20 µM (Schistosoma japonicum [37]): 0%; survival at 15 µM (Schistosoma japonicum [38]): 40%
3 | C[C@H]1[C@@H](OC(=O)CCC(=O)Oc2ccc3c(c2)C2CN(C(=O)C4CCCCC4)CC(=O)N2CC3)O[C@@H]2O[C@@]3(C)CC[C@H]4[C@H](C)CC[C@@H]1[C@@]24OO3 (some centres not stated) | 0 | 0 |  | 0 | 0 | 0 | 0 | 70.3 | 0 | 0 | 33.3 | 33.3 |  | 0 |  | 0 | 0 | 56.2 | 0 | 16.7 | survival at 15 µM (Schistosoma japonicum [29]): 0%; survival at 20 µM (Schistosoma japonicum [33]): 0%; survival at 15 µM (Schistosoma japonicum [34]): 0%; survival at 20 µM (Schistosoma japonicum [35]): 0%; survival at 20 µM (Schistosoma japonicum [36]): 0%; survival at 15 µM (Schistosoma japonicum [38]): 0%
4 | C[C@H]1[C@@H](CC(=O)Nc2ccc3c(c2)C2CN(C(=O)C4CCCCC4)CC(=O)N2CC3)O[C@@H]2O[C@@]3(C)CC[C@H]4[C@H](C)CC[C@@H]1[C@@]24OO3 (some centres not stated) |  | 100 |  |  |  |  |  |  | 80 |  |  |  |  |  |  | 20 |  |  |  |  | 
5 | C[C@H]1[C@@H](CC(=O)Oc2ccc3c(c2)C2CN(C(=O)C4CCCCC4)CC(=O)N2CC3)O[C@@H]2O[C@@]3(C)CC[C@H]4[C@H](C)CC[C@@H]1[C@@]24OO3 (some centres not stated) | 40 | 0 | 100 | 28.6 | 0 | 28.6 | 28.6 | 20.5 | 0 | 0 |  |  | 80 | 0 | 0 | 0 | 14.3 | 49.6 | 0 |  | survival at 25 µM (Schistosoma japonicum [30]): 28.6%; survival at 5 µM (Schistosoma japonicum [15]): 40%; survival at 25 µM (Schistosoma japonicum [31]): 0%; survival at 5 µM (Schistosoma japonicum [18]): 0%; survival at 25 µM (Schistosoma japonicum [32]): 25%; survival at 5 µM (Schistosoma japonicum [23]): 20%

Source: ChEMBL document CHEMBL1949576, “Praziquantel derivatives exhibit activity against both juvenile and adult Schistosoma japonicum” (2012)
